Assay results as given in ChEMBL document CHEMBL1127229, “New non-peptide angiotensin II receptor antagonists. 1: structure - activity relationships of a series of a series of 2(1H)-pyridinones” (1994).

Experiments:
Assay type in all cases: functional
Rattus norvegicus [1] = test: In vivo potency determined for AII-induced pressor response in normotensive rats, iv administration; settings: read-out: ID50 (the source's name)
Rattus norvegicus [2] = test: Tested for lowering of Blood pressure in spontaneous hypertensive rat at a dose of 10mg/kg, po at 6 hr.
Rattus norvegicus [3] = test: In vivo potency determined for AII-induced pressor response in normotensive rats, iv; settings: read-out: ID50 (the source's name)

CCCc1cc(O)c(C)c(=O)n1Cc1ccc(-c2ccccc2-c2nn[nH]n2)cc1
ED50 (Rattus norvegicus [1]): 0.027 mg/kg

CCCc1cc(C(=O)O)cc(=O)n1Cc1ccc(-c2ccccc2-c2nn[nH]n2)cc1
ED50 (Rattus norvegicus [1]): 0.078 mg/kg

CCCc1cc(CO)cc(=O)n1Cc1ccc(-c2ccccc2-c2nn[nH]n2)cc1
ED50 (Rattus norvegicus [1]): 0.3 mg/kg

CCCCc1cc(O)cc(=O)n1Cc1ccc(-c2ccccc2-c2nn[nH]n2)cc1
ED50 (Rattus norvegicus [1]): 0.38 mg/kg | BP decrease (Rattus norvegicus [2]): 36%

CCCc1cc(SC)cc(=O)n1Cc1ccc(-c2ccccc2-c2nn[nH]n2)cc1
ED50 (Rattus norvegicus [1]): 0.28 mg/kg

CCCc1cc(S)cc(=O)n1Cc1ccc(-c2ccccc2-c2nn[nH]n2)cc1
ED50 (Rattus norvegicus [1]): 0.017 mg/kg

CCCc1cc(OCc2cccnc2)cc(=O)n1Cc1ccc(-c2ccccc2-c2nn[nH]n2)cc1
ED50 (Rattus norvegicus [1]): 0.72 mg/kg

CCCc1cc(N)c([N+](=O)[O-])c(=O)n1Cc1ccc(-c2ccccc2-c2nn[nH]n2)cc1
ED50 (Rattus norvegicus [3]): 4.8 mg/kg

CCCc1cc(O)cc(=O)n1Cc1ccc(-c2ccccc2-c2nn[nH]n2)cc1
ED50 (Rattus norvegicus [1]): 0.048 mg/kg

CCCc1cc(C(=O)NCCN(C)C)cc(=O)n1Cc1ccc(-c2ccccc2-c2nn[nH]n2)cc1
ED50 (Rattus norvegicus [1]): 0.18 mg/kg

CCCc1cccc(=O)n1Cc1ccc(-c2ccccc2-c2nn[nH]n2)cc1
ED50 (Rattus norvegicus [1]): 1.1 mg/kg

CCc1cc(O)cc(=O)n1Cc1ccc(-c2ccccc2-c2nn[nH]n2)cc1
ED50 (Rattus norvegicus [1]): 0.084 mg/kg

CCCc1cc(OC)cc(=O)n1Cc1ccc(-c2ccccc2-c2nn[nH]n2)cc1
ED50 (Rattus norvegicus [1]): 0.24 mg/kg

CCCCc1cc(O)c([N+](=O)[O-])c(=O)n1Cc1ccc(-c2ccccc2-c2nn[nH]n2)cc1
ED50 (Rattus norvegicus [1]): 0.58 mg/kg

CCCCc1nc(Cl)c(CO)n1Cc1ccc(-c2ccccc2-c2nnn[n-]2)cc1.[K+] [LOSARTAN POTASSIUM]
ED50 (Rattus norvegicus [1]): 1.2 mg/kg
